This is an account of results in US8263584B2, “Imidazopyridines” (Hoffmann-La Roche Inc., priority 2009, dated 2012).

The assay concerns the target T1, PDE10A2 (Homo sapiens, UniProt Q9Y233).
T1 construct: residues serine 449 to aspartate 789; His6 (H6) with Gateway linker and thrombin cleavage site (N, cleaved yes); made in house; host or cells: E. coli BL21(DE3) pLysS
As to the kind of experiment: PDE10A2 inhibition, Scintillation Proximity Assay (SPA). Type of assay: biochemical. To be noted: catalytic domain of human PDE10A2 (S449-D789), 0.25 nM enzyme, 50 nM cGMP and 50 nM [3H]-cGMP, 30 minutes at room temperature. On the procedure: The following tests were carried out in order to determine the activity of the compounds of the present invention. PDE10 activity of the compounds of the present invention is determined using a Scintillation Proximity Assay (SPA)-based method similar to the one previously described (Fawcett, L. et al., Proc Natl Acad Sci USA (2000) 97(7):3702-3707). PDE10A1 and PDE10A2 are two splice variants of PDE10A. There are these 2 splice variants known, which differ in the N-terminal part of the protein. The catalytic domains of PDE10A1 and PDE10A2 are identical. The assay for PDE10A2 described below is therefore also representative for PDE10A1 and also for PDE10A in general. The PDE10A2 assay was performed in a two step procedure in 96-well micro titer plates. […] A range of concentrations of the potential inhibitor was used to generate data for calculating the concentration of inhibitor resulting in 50% of the effect (e.g. IC50, the concentration of the competitor inhibiting PDE10A2 activity 50%). Non-specific activity was tested without the enzyme. The reaction was initiated by addition of the substrate solution (cGMP and [^3H]-cGMP) and allowed to progress for 30 minutes at room temperature. The reaction was terminated by transferring 50 μl of the reaction mixture into an OptiPlate (Perkin Elmer) containing 25 μl of YSi-SPA scintillation beads (GE Healthcare) in 18 mM zinc sulphate solution (stop reagent). After 1 h under shaking, the plate was centrifuged one minute at 1000 rpm to allow beads to settle. Afterwards, radioactive counts were measured on a Perkin Elmer TopCount Scintillation plate reader. The catalytic domain of human PDE10[…], was amplified by PCR using cDNA (Origene) and the oligonucleotides 5'-[…]00001:character} […] no. 1) (with AttB1 recombination site in bold and thrombin protease cleavage site in […] no. 2) (with AttB2 recombination site in bold) which conferred Gateway recombination sites. The PCR product was used in a BP recombination reaction with pDONR221 to generate […]([…]-[…]) which was DNA sequence verified and then used in an LR recombination reaction with a Gateway modified version of pET11a. […] About 30% of the protein was in the soluble fraction of the cell homogenate. The protein was purified using sequential chromatography on Ni-NTA and […]. After thrombin digest at room temperature a […]/HiTrap Benzamindin chromatography removed impurities, uncleaved protein and thrombin. Final purification of PDE10A2([…]-[…]) was performed on a Superdex 75 size exclusion chromatography equilibrated with 25 mM HEPES pH 8.4, 0.15 M NaCl. The yield of pure protein was 2 mg/liter of culture volume is relatively low. The purity of the protein was >95%, monomeric and monodisperse as shown by SDS-PAGE, HPLC and analytical ultracentrifugation.

T1 sequence (Q9Y233 715-1055): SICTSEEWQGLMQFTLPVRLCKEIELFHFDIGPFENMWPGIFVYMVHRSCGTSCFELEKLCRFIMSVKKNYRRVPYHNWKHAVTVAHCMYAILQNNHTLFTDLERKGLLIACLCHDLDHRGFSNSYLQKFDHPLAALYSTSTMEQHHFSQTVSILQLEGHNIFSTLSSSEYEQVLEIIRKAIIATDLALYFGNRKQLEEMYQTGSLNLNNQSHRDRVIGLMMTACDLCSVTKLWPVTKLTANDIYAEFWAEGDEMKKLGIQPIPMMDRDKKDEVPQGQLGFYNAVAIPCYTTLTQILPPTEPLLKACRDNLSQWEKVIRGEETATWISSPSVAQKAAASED

One may read the IC50 as the midpoint of a concentration-inhibition curve. For `CN1CCN(C(=O)c2cnn(C)c2C(=O)Nc2ccn3cc(-c4ccccc4)nc3c2)CC1` [Example 52, 2-Methyl-4-(4-methyl-piperazine-1-carbonyl)-2H-pyrazole-3-carboxylic acid (2-phenyl-imidazo[1,2-a]pyridin-7-yl)-amide], the IC50 stood at 4.7 nM. For `Cn1ncc(C(=O)N2CCOCC2CO)c1C(=O)Nc1ccn2cc(-c3ccccc3)nc2c1` (stereo not shown) [Example 53, 4-(3-Hydroxymethyl-morpholine-4-carbonyl)-2-methyl-2H-pyrazole-3-carboxylic acid (2-phenyl-imidazo[1,2-a]pyridin-7-yl)-amide], the IC50 was found to be 3.3 nM. For `Cn1ncc(C(=O)Nc2ccncc2)c1C(=O)Nc1ccn2cc(-c3ccccc3)nc2c1` [Example 55, 2-Methyl-2H-pyrazole-3,4-dicarboxylic acid 3-[(2-phenyl-imidazo[1,2-a]pyridin-7-yl)-amide]-4-pyridin-4-ylamide], the concentration for half-maximal inhibition (IC50) was 4.3 nM. In the case of `CN(C)C1CCN(C(=O)c2cnn(C)c2C(=O)Nc2ccn3cc(-c4ccccc4)nc3c2)C1` (stereo not shown) [Example 59, 4-(3-Dimethylamino-pyrrolidine-1-carbonyl)-2-methyl-2H-pyrazole-3-carboxylic acid (2-phenyl-imidazo[1,2-a]pyridin-7-yl)-amide], the half-inhibitory concentration (IC50) stood at 0.6 nM.

Take `CCn1ncc(C(=O)N2CCC2)c1C(=O)Nc1ccn2cc(-c3ccccc3)nc2c1` [Example 62, 4-(Azetidine-1-carbonyl)-2-ethyl-2H-pyrazole-3-carboxylic acid (2-phenyl-imidazo[1,2-a]pyridin-7-yl)-amide]: the half-maximal inhibitory concentration (IC50) was determined as 12.6 nM. With `CNC(=O)c1cn[nH]c1C(=O)Nc1ccn2cc(-c3ccccc3)nc2c1` [Example 65, 2H-Pyrazole-3,4-dicarboxylic acid 4-methylamide 3-[(2-phenyl-imidazo[1,2-a]pyridin-7-yl)-amide]], the concentration for half-maximal inhibition (IC50) worked out at 41.8 nM. The value for `Cn1ncc(C(=O)NC(CO)CO)c1C(=O)Nc1ccn2cc(-c3ccccc3)nc2c1` [Example 66, 2-Methyl-2H-pyrazole-3,4-dicarboxylic acid 4-[(2-hydroxy-1-hydroxymethyl-ethyl)-amide]3-[(2-phenyl-imidazo[1,2-a]pyridin-7-yl)-amide]] was 2 nM; that for `Cn1ncc(C(=O)N2CCC2)c1C(=O)Nc1cc2nc(-c3ccccc3)cn2cc1Br` [Example 67, 4-(Azetidine-1-carbonyl)-2-methyl-2H-pyrazole-3-carboxylic acid (6-bromo-2-phenyl-imidazo[1,2-a]pyridin-7-yl)-amide] was 0.1 nM; that for `Cn1ncc(C(=O)N2CCOCC2)c1C(=O)Nc1cc2nc(-c3ccccc3)cn2cc1C#N` [Example 69, 2-Methyl-4-(morpholine-4-carbonyl)-2H-pyrazole-3-carboxylic acid (6-cyano-2-phenyl-imidazo[1,2-a]pyridin-7-yl)-amide] was 1 nM.

For `Cn1ncc(C(=O)N2CCC2)c1C(=O)Nc1cc2nc(-c3ccccc3)cn2cc1Cl` [Example 70, 4-(Azetidine-1-carbonyl)-2-methyl-2H-pyrazole-3-carboxylic acid (6-chloro-2-phenyl-imidazo[1,2-a]pyridin-7-yl)-amide], the IC50 worked out at 0.3 nM. The value for `Cn1ncc(C(=O)N2CCOCC2)c1C(=O)Nc1cc2nc(-c3ccccc3)cn2cc1Cl` [Example 72, 2-Methyl-4-(morpholine-4-carbonyl)-2H-pyrazole-3-carboxylic acid (6-chloro-2-phenyl-imidazo[1,2-a]pyridin-7-yl)-amide] was 0.8 nM.

On to `Cn1ncc(C(=O)N2CCC2)c1C(=O)Nc1cc2nc(-c3ccccc3)cn2cc1C1CC1` [Example 74, 4-(Azetidine-1-carbonyl)-2-methyl-2H-pyrazole-3-carboxylic acid (6-cyclopropyl-2-phenyl-imidazo[1,2-a]pyridin-7-yl)-amide], for which the 50% inhibitory concentration (IC50) turned out to be 0.7 nM. `Cn1ncc(C(=O)N2CCOCC2)c1C(=O)Nc1cc2nc(-c3ccccc3)cn2cc1C1CC1` [Example 75, 2-Methyl-4-(morpholine-4-carbonyl)-2H-pyrazole-3-carboxylic acid (6-cyclopropyl-2-phenyl-imidazo[1,2-a]pyridin-7-yl)-amide]: the IC50 stood at 1 nM.

For the compound `Cn1ncc(Cl)c1C(=O)Nc1cc2nc(-c3ccccc3)cn2cn1` [Example 80, 4-Chloro-2-methyl-2H-pyrazole-3-carboxylic acid (2-phenyl-imidazo[1,2-c]pyrimidin-7-yl)-amide], the concentration for half-maximal inhibition (IC50) amounted to 7 nM. Turning to `CN(C)C(=O)c1cnn(C)c1C(=O)Nc1cc2nc(-c3ccccc3)cn2cn1` [Example 82, 2-Methyl-2H-pyrazole-3,4-dicarboxylic acid 4-dimethylamide 3-[(2-phenyl-imidazo[1,2-c]pyrimidin-7-yl)-amide]], the IC50 worked out at 0.1 nM. For `CNC(=O)c1cnn(C)c1C(=O)Nc1cc2nc(-c3ccccc3)cn2cn1` [Example 84, 2-Methyl-2H-pyrazole-3,4-dicarboxylic acid 4-methylamide 3-[(2-phenyl-imidazo[1,2-c]pyrimidin-7-yl)-amide]], the 50% inhibitory concentration (IC50) was 2.7 nM. Regarding `COCCCNC(=O)c1cnn(C)c1C(=O)Nc1cc2nc(-c3ccccc3)cn2cn1` [Example 85, 2-Methyl-2H-pyrazole-3,4-dicarboxylic acid 4-[(3-methoxy-propyl)-amide]3-[(2-phenyl-imidazo[1,2-c]pyrimidin-7-yl)-amide]], the half-maximal inhibitory concentration (IC50) turned out to be 0.6 nM. The figure for `Cn1ncc(C(=O)N2CCC2)c1C(=O)Nc1cc2nc(-c3ccccc3)cn2cn1` [Example 86, 4-(Azetidine-1-carbonyl)-2-methyl-2H-pyrazole-3-carboxylic acid (2-phenyl-imidazo[1,2-c]pyrimidin-7-yl)-amide] is 0.3 nM; for `Cn1ncc(C(=O)N2CCOCC2)c1C(=O)Nc1cc2nc(-c3ccccc3)cn2cn1` [Example 89, 2-Methyl-4-(morpholine-4-carbonyl)-2H-pyrazole-3-carboxylic acid (2-phenyl-imidazo[1,2-c]pyrimidin-7-yl)-amide] it is 0.1 nM.
